Values of other authors, collected in patent publication US20140106406A1, “GENE CLUSTER FOR THE PRODUCTION OF GOUGEROTIN, GOUGEROTIN ANALOGUES, AND PRECURSORS THEREOF” (Bayer Cropscience LP, priority 2012, published 2014).

Tests used:
[1] = system: parasites on animals, such as pin worm
[2] = system: gram-positive, gram-negative bacteria and tubercule bacillus
powdery mildew = details: against powdery mildew

CNCC(=O)NC(CO)C(=O)NC1C(C(N)=O)OC(n2ccc(N)nc2=O)C(O)C1O (stereo not drawn) [gougerotin]
parasiticidal action [1]: parasiticidal action | antibacterial activity [2]: weak antibacterial activity

NC(N)=NCC(O)CC(O)(C(=O)O)[C@H]1O[C@@H](n2cc(CO)c(N)nc2=O)C=C[C@@H]1NC(=O)[C@@H](N)CO (stereo partly drawn) [antibiotic B-98891]
antifungal activity (powdery mildew): antifungal activity
